Laboratory results published in article PMC6927504, “Screening of House Dust from Chinese Homes for Chemicals with Liver X Receptors Binding Activities and Characterization of Atherosclerotic Activity Using an in Vitro Macrophage Cell Line and ApoE^−/− Mice” (Environmental Health Perspectives, 2019).

Assays:
RAW264.7 macrophages = assay: Foam cell formation (ox-LDL, BODIPY 493/503 staining) in RAW264.7 macrophages; assay type: cell-based
Experimental: RAW264.7 cells were obtained from the National Infrastructure of Cell Line Resource of Beijing, China, and the cells used for the experiment were cultured for at least three passages. Dulbecco’s Modified Eagle’s Medium (DMEM)-F12 medium containing 10% fetal bovine serum (FBS) was employed to culture the RAW264.7 cells. RAW264.7 cells were incubated at 37°C with 5% carbon dioxide. The RAW264.7 cells were plated at 2.5×10^5 cells/well (6-well plates), 6.0×10^4 cells/well (24-well plates), and 10^4 cells/well (96-well plates). The RAW264.7 cells were plated and grown overnight; then the medium was removed and fresh DMEM-F12 contained with 0.1% DMSO (control; n=3 ) or TPHP at the concentrations of 1–20,000 nM ( n=3 per group) was added. […] Then the cells were used for the quantitative reverse transcription (qRT)-PCR, cellular cholesterol efflux assay, and foam cell formation experiment.
RAW264.7 cells or mouse peritoneal macrophages were plated in 24-well plates at 6.0×10^4 cells/well and grown overnight. Then the medium was removed and fresh DMEM-F12 containing 10% FBS, 20μg/mL oxidized low-density lipoprotein (ox-LDL), and 0.1% DMSO (control; n=3 ) or TPHP at the concentration of 1–20,000 nM ( n=3 per group) was added. The cells were washed with PBS, followed by fixing in 4% paraformaldehyde for 30 min and staining with boron-dipyrromethene (BODIPY) 493/503 ( 20μg/mL ) and 4′,6-diamidino-2-phenylindole (DAPI; 100 ng/mL ) for 10 min. Foam cell formation was analyzed by high-content microscopy using ImageXpress® Micro XL (Molecular Devices). From each well, 25 image fields were scanned, and MetaXpress® (Molecular Devices) was used to quantify compartmentalized changes in the fluorescence of each cell.

ApoE−/− mice = assay: Atherosclerotic lesion analysis (Oil Red O) in ApoE−/− mouse model; assay type: in vivo; conditions: 13 weeks, p<0.01; for Area of the atherosclerotic lesion (en face lipid staining), higher than control: high-fat diet
Description: All experiments related to animals were approved by the institutional animal care and use committee of Peking University and followed the guidelines for animal experiments of the university as well as for experimental animals in China. The biological effect size of the animal experiments was based on the previous paper ([Negro Silva et al. 2017]). C57BL/6 (12 weeks old) and ApoE^−/− mice (12 weeks old) were obtained from the Beijing Vital River Laboratory Animal Technology Company. Mice used in the experiments were acclimated to the housing unit 2 weeks before they were used for experiments, and they were randomly assigned to control or TPHP treatment groups. Five animals were housed to a cage, and mice were acclimatized to the controlled environment (temperature: 22±2°C; relative humidity: 40–60%; artificial lighting: 12 h:12 h light/dark). Mice received diet and drinking water ad libitum. Body weight (BW) was measured every week during the dosing period. Forty-five C57BL/6 mice and 27 ApoE^−/− mice were used in this study. Animal protocol 1: Male C57BL/6 mice (five mice per group) were fed a basic diet (Laboratory Animal Center of the Academy of Military Medical Sciences, China). On Day 0, mice were stimulated with paraffin oil by intraperitoneal injection. From Day 1 to Day 7, mice were exposed to corn oil (control) or TPHP (dissolved in corn oil) at 40 or 200mg/kg BW by daily oral gavage. The volume of the corn oil or TPHP in corn oil administered was 5mL/kg BW. On Day 8, after the mice were anesthetized by sodium pentobarbital via intramuscular injection, peritoneal macrophages were harvested from peritoneal lavage with 4mL pre-warmed DMEM-F12 (containing 10% FBS) using a 25-gauge needle; 5–10 min later, 3–3.5mL peritoneal fluid was collected, and the cells were isolated by centrifuge at 1,000 rpm for 5 min. […] Considering that this study assessed the effects of short-term exposure to TPHP, whereas humans are exposed to TPHP over a lifelong period, the present study used exposure doses that were higher than that of human exposure from house dust. […]

O=P(Oc1ccccc1)(Oc1ccccc1)Oc1ccccc1 [TPHP, triphenyl phosphate]
Intensity of foam cell staining relative to control (RAW264.7 macrophages; 100 nM, p<0.01): 1.64±0.02 fold | Intensity of foam cell staining relative to control (RAW264.7 macrophages; 1,000 nM, p<0.01): 1.67±0.14 fold | Intensity of foam cell staining relative to control (RAW264.7 macrophages; 5,000 nM, p<0.05): 1.78±0.31 fold | Intensity of foam cell staining relative to control (RAW264.7 macrophages; 10,000 nM, p<0.05): 2.08±0.45 fold | Intensity of foam cell staining relative to control (RAW264.7 macrophages; 20,000 nM, p<0.05): 2.09±0.52 fold | Atherosclerotic lesion area around the aortic root versus control (ApoE−/− mice; 10 and 40 mg/kg BW): significantly higher lesion area | Area of the atherosclerotic lesion (en face lipid staining), higher than control (ApoE−/− mice; 10 mg/kg BW oral gavage): 41% | Area of the atherosclerotic lesion (en face lipid staining), higher than control (ApoE−/− mice; 40 mg/kg BW oral gavage): 83%
